Test results as given in US9370517B2, “Substituted pyrazolopyrimidines as Akt kinase inhibitors” (Bayer Intellectual Property GmbH, priority 2012, dated 2016).

Key:
[1] = target: T1, His-tagged human recombinant kinase full-length Akt1 (Homo sapiens, UniProt P31749); experiment: Akt1 kinase assay (TR-FRET); type: biochemical; details: 10 μM ATP, 60 min at 22° C.; read-out: Akt1, median IC50
T1 construct: His-tagged human recombinant kinase full-length Akt1; His; purchased Invitrogen PV 3599; host or cells: insect cells
Text: Biological Assay 1.0: Akt1 Kinase Assay
Akt1 inhibitory activity of compounds of the present invention was quantified employing the Akt1 TR-FRET assay as described in the following paragraphs.
(§1) His-tagged human recombinant kinase full-length Akt1 expressed in insect cells was purchased form Invitrogen (part number PV 3599). As substrate for the kinase reaction the biotinylated peptide biotin-Ahx-KKLNRTLSFAEPG (SEQ ID NO: 1) (C-terminus in amide form) was used which can be purchased e.g. from the company Biosynthan GmbH (Berlin-Buch, Germany).
(§2) For the assay 50 nl of a 100fold concentrated solution of the test compound in DMSO was pipetted into a black low volume 384well microtiter plate (Greiner Bio-One, Frickenhausen, Germany), 2 μl of a solution of Akt1 in assay buffer [50 mM TRIS/HCl pH 7.5, 5 mM MgCl2, 1 mM dithiothreitol, 0.02% (v/v) Triton X-100 (Sigma)]were added and the mixture was incubated for 15 min at 22° C. to allow prebinding of the test compounds to the enzyme before the start of the kinase reaction. Then the kinase reaction was started by the addition of 3 μl of a solution of adenosine-tri-phosphate (ATP, 16.7 μM=>final conc. in the 5 μl assay volume is 10 μM) and substrate (1.67 μM=>final conc. in the 5 μl assay volume is 1 μM) in assay buffer and the resulting mixture was incubated for a reaction time of 60 min at 22° C. […]
(§3) The resulting mixture was incubated 1 h at 22° C. to allow the binding of the biotinylated phosphorylated peptide to the streptavidine-XL665 and the antibodies. Subsequently the amount of phosphorylated substrate was evaluated by measurement of the resonance energy transfer from the anti-mouse-IgG-Eu-Chelate to the streptavidine-XL665. Therefore, the fluorescence emissions at 620 nm and 665 nm after excitation at 350 nm was measured in a HTRF reader, e.g. a Rubystar (BMG Labtechnologies, Offenburg, Germany) or a Viewlux (Perkin-Elmer). […]

p-AKT1/2/3-S473 = experiment: Cellular p-AKT1/2/3-S473 assay in KPL-4 cells; type: cell-based; details: Homo sapiens, KPL4, read-out: pAKT-S473 median IC50, 2 hours treatment, read-out: pAKT-S743 median IC50
Description: (§4) The molecular mechanism of action was investigated in a set of experiments to assess the inhibition of the PI3K-AKT-mTOR pathway in responsive cell lines such as KPL-4 breast tumour cell line (PIK3CA^H1047R, HER2^O/E and hormone independent). The phospho-substrates of PI3K-AKT-mTOR axis were used as the readouts to reflect pathway inhibition. Cells were seeded at 60-80% confluency per well in 96-well cell culture plates. After overnight incubation at 37° C. 5% CO2, cells were treated with compounds and vehicle at 37° C. for 2 hours. Thereafter, cells were lysed in 150 μl lysis buffer and the levels of phospho-AKT at 1308 and S473 and p-4E-BP1 at T70 sites were determined with the corresponding AlphaScreen® SureFire® assay kits (Perkin Elmer: 4E-BPI Assay Kit Cat # TRG4E2S10K; Akt 1/2/3 p-Ser 473 #TGRA4S500 and Akt 1/2/3 p-Thr 308 #TGRA3S500 as well as IgG detection Kit #6760617M) as described in the manuals. All measurements where at least done in duplicates and confirmed by independent repetition. Alternatively pAKT-S473 was measured using the “Akt Duplex” of the MULTI-SPOT® Assay System (Fa. Meso Scale Discovery, Cat# N41100B-1) following manufacturers instructions. Each assay used 20 μg of protein extract and measured total AKT and p-AKT content simultaneously in one well. All measurements where at least done in duplicates and confirmed by independent repetition. Values for P-AKT are expressed as percentage of P-AKT level compared to total-AKT content of the extracts.

[2] = test system: KPL-4 breast cancer cell line; experiment: Tumor cell proliferation assay (CellTiter-Glo), KPL-4; type: cell-based; details: Homo sapiens, KPL4, 72 h drug exposure; for inhibition at 1.67 µM: read-out: KPL-4 median inhibition at 1.67 μM (%)
Description: (§5) Biological Assay 4.0: Tumor Cell Proliferation Assays
(§6) Compounds were tested in a cell-based assay that measures the capacity of the compounds to inhibit tumour cell proliferation following a 72 h drug exposure. Cell viability is determined using CellTiter-Glow® (CTG, Promega, cat# G7571/2/3). The CellTiter-Glo® Luminescent Cell Viability Assay is a homogeneous method to determine the number of viable cells in culture. Detection is based on using the luciferase reaction to measure the amount of ATP from viable cells. The amount of ATP in cells correlates with cell viability. Within minutes after a loss of membrane integrity, cells lose the ability to synthesize ATP, and endogenous ATPases destroy any remaining ATP; thus the levels of ATP fall precipitously.
(§7) Cells were plated at 3000-5000 cells/well (depending on the cell lines) in 90 μL growth medium on MTPs (Corning; #3603, black plate, clear flat bottom). For each cell line assayed, cells were plated onto a separate plate for determination of […] at t=0 hour and t=72 hour time points. Following overnight incubation at 37° C., chemiluminescence values for the t=0 samples were determined after adding 10 μl medium and 100 μl CTG solution according to manufacture protocol. Plates for the t=72 hour time points were treated with compounds diluted into growth medium at ten times final concentration added in 10 μL to the cell culture plate. Cells were then incubated for 72 hours at 37° C. Chemiluminescence values for the t=72 hour samples were determined. […] Experiments were controlled using a reference compound as standard.
(§8) Preferred compounds of the present invention show in this assay an inhibition of cell growth of cell lines such as the KPL-4 breast cancer cell line and the MCF-7 breast tumour cell line ([…], hormone dependent) with a median IC50 of <10 μM, more preferably, median IC50≦1 μM.

[3] = target: T2, His-tagged human recombinant kinase full-length Akt2 (Homo sapiens, UniProt P31751); experiment: Akt2 kinase assay (TR-FRET); type: biochemical; details: 10 μM ATP, 60 min at 22° C.; read-out: Akt2, median IC50
T2 construct: His-tagged human recombinant kinase full-length Akt2; His; purchased Invitrogen PV 3975; host or cells: insect cells
Text: Biological Assay 2.0: Akt2 Kinase Assay
Akt2 inhibitory activity of compounds of the present invention was quantified employing the Akt2 TR-FRET assay as described in the following paragraphs.
as §1, with “full-length Akt2” for “full-length Akt1”, “cells and activated by PDK1” for “cells”, “purchased from” for “purchased form”, “PV 3975).” for “PV 3599).”
as §2, with “Akt2” for “Akt1”, “(Sigma)] were” for “(Sigma)]were”
as §3, with “TR-FRET” for “HTRF”

p-4E-BP1-T70 = experiment: Cellular p-4E-BP1-T70 assay in KPL-4 cells; type: cell-based; details: Homo sapiens, KPL4, 2 hours treatment, read-out: P4EBP1-T70 median IC50
Description: as §4

[4] = test system: MCF-7 breast tumour cell line; experiment: Tumor cell proliferation assay (CellTiter-Glo), MCF-7; type: cell-based; details: Homo sapiens, MCF7, 72 h drug exposure; for inhibition at 1.67 µM: read-out: MCF-7 median inhibition at 1.67 μM (%)
Description: as §5, §6, §7, §8

T2 sequence (P31751 whole entry): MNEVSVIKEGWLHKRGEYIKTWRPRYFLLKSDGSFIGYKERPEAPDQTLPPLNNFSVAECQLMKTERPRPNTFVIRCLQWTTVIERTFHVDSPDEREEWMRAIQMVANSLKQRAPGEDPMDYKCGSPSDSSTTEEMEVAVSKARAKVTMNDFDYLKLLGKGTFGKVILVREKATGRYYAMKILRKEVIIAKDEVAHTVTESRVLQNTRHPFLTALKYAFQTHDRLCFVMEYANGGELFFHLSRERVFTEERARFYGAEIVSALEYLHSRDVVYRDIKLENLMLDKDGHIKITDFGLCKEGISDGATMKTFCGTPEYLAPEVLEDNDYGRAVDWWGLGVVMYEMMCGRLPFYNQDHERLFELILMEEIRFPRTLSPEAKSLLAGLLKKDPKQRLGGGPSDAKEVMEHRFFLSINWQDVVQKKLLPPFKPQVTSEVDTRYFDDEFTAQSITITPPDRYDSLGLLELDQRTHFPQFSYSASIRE
T1 sequence (P31749 whole entry): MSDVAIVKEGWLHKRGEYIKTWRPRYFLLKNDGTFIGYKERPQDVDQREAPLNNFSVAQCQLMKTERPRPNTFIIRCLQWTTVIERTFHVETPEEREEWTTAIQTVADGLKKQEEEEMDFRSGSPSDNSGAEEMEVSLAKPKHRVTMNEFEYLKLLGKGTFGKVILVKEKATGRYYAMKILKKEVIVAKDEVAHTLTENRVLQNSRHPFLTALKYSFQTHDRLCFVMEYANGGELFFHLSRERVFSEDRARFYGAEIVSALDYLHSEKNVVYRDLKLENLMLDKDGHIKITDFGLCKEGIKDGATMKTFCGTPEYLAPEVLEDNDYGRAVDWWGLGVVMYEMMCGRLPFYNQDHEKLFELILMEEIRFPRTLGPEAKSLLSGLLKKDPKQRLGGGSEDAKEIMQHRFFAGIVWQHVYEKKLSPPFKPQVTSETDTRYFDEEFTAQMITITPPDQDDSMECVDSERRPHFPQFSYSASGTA

Compound: CCc1cc(CC)n2nc(-c3ccc(C4(N)CCC4)cc3)c(-c3ccccc3)c2n1 [Example 2, 1-[4-(5,7-Diethyl-3-phenylpyrazolo[1,5-a]pyrimidin-2-yl)phenyl]-cyclobutanamine]
- IC50 [1]: 410 nM
- IC50 (p-AKT1/2/3-S473): 1700 nM
- inhibition at 1.67 µM [2]: 7.1%
- IC50 [2]: 2200 nM
- IC50 [3]: 410 nM
- IC50 (p-4E-BP1-T70): 3.7 µM
- inhibition at 1.67 µM [4]: 24.5%
- IC50 [4]: 2000 nM

Compound: NC1(c2ccc(-c3nn4c(C(F)(F)F)cc(C(F)(F)F)nc4c3-c3ccccc3)cc2)CCC1 [Example 3, 1-{4-[3-Phenyl-5,7-bis(trifluoromethyl)pyrazolo[1,5-a]pyrimidin-2-yl]phenyl}cyclobutanamine]
- IC50 [1]: 320 nM
- IC50 (p-AKT1/2/3-S473): 1800 nM
- inhibition at 1.67 µM [2]: 6.6%
- IC50 [2]: 2400 nM
- IC50 [3]: 860 nM
- IC50 (p-4E-BP1-T70): 3.3 µM
- inhibition at 1.67 µM [4]: 25.6%
- IC50 [4]: 2000 nM

Compound: Cc1cc(C)n2nc(-c3ccc(C4(N)CCC4)cc3)c(-c3ccccc3)c2n1 [Example 1, 1-[4-(5,7-Dimethyl-3-phenylpyrazolo[1,5-a]pyrimidin-2-yl)-phenyl]cyclobutanamine]
- IC50 [1]: 66 nM
- IC50 (p-AKT1/2/3-S473): 130 nM
- inhibition at 1.67 µM [2]: 29.8%
- IC50 [2]: 1900 nM
- IC50 [3]: 460 nM
- IC50 (p-4E-BP1-T70): 1.8 µM
- inhibition at 1.67 µM [4]: 47.4%
- IC50 [4]: 1800 nM
